# Test results as given in patent US8063095B2, “IAP BIR domain binding compounds” (Pharmascience Inc., priority 2005, dated 2011).
# Test system: MDA-MB-231 (breast) cancer cells
# Test: Cell viability (MTT) assay, MDA cells
# Details: 72 hours, MTT based assay
# Experimental: MDA-MD-231 (breast) and SKOV-3 (ovarian) cancer cells were cultured in RPMI1640 media supplemented with 10% FBS and 100 units/mL of Penicillin and Steptomycin.
# Viability assays were done on a number of cells including MDA-MB-231, SKOV-3, H460, PC3, HCT-116, and SW480 cells. Cells were seeded in 96 well plates at a respective density of 5000 and 2000 cells per well and incubated at 37° C. in presence of 5% CO2 for 24 hours. Selected compounds were diluted into the media at various concentration ranging from 0.01 uM up to 100 uM. Diluted compounds were added onto the MDA-MB-231 cells. For the MDA-MB-231 SKOV3, H460, PC3, HCT-116, and SW480 cells, the compounds were added either alone or in presence of 1-3 ng/ml of TRAIL. After 72 hours cellular viability was evaluated by MTT based assays.
row,SMILES,EC50
1,CN[C@@H](C)C(=O)N[C@@H](CCC(=O)NCCNC(=O)CC[C@H](NC(=O)[C@H](C)NC)C(=O)N1CCC[C@H]1CN(CCc1ccccc1)C(=O)C(F)(F)F)C(=O)N1CCC[C@H]1CN(CCc1ccccc1)C(=O)C(F)(F)F [Compound 18],< 1000 nM
2,CN[C@@H](C)C(=O)N[C@@H](CCC(=O)NCCNC(=O)CC[C@H](NC(=O)[C@H](C)NC)C(=O)N1CCC[C@H]1CN(CCc1ccccc1)C(=O)C(F)(F)F)C(=O)N1CCC[C@H]1CN(CCc1ccccc1)C(=O)C(F)(F)F [Compound 19],< 1000 nM
3,CN[C@@H](C)C(=O)N[C@@H](CCC(=O)NCCNC(=O)CC[C@H](NC(=O)[C@H](C)NC)C(=O)N1CCC[C@H]1CN(CCc1ccccc1)C(=O)C(F)(F)F)C(=O)N1CCC[C@H]1CN(CCc1ccccc1)C(=O)C(F)(F)F [Compound 20],< 1000 nM

# Other lines, results leading:
row,EC50,SMILES
1,< 1000 nM,CN[C@@H](C)C(=O)N[C@@H](CCC(=O)NCCNC(=O)CC[C@H](NC(=O)[C@H](C)NC)C(=O)N1CCC[C@H]1CN(CCc1ccccc1)C(=O)C(F)(F)F)C(=O)N1CCC[C@H]1CN(CCc1ccccc1)C(=O)C(F)(F)F [Compound 21]
2,< 100 nM,CN[C@@H](C)C(=O)N[C@@H](CCC(=O)NCCNC(=O)CC[C@H](NC(=O)[C@H](C)NC)C(=O)N1CCC[C@H]1CN(CCc1ccccc1)C(=O)C(F)(F)F)C(=O)N1CCC[C@H]1CN(CCc1ccccc1)C(=O)C(F)(F)F [Compound 22]

# Same assay, conditions: Homo sapiens, MDA-MB-231, 72 h, MTT based assay
row,SMILES,EC50
1,CN[C@@H](C)C(=O)N[C@H](C(=O)N1CCC[C@H]1CN(CCc1ccccc1)C(C)=O)[C@@H](C)OCC#CC#CCO[C@H](C)[C@H](NC(=O)[C@H](C)NC)C(=O)N1CCC[C@H]1CN(CCc1ccccc1)C(C)=O [Compound 5],< 100 nM
2,CN[C@@H](C)C(=O)N[C@H](C(=O)N1CCC[C@H]1CN(CCc1ccccc1)C(=O)c1ccc(OC)cc1)[C@@H](C)OCC#CC#CCO[C@H](C)[C@H](NC(=O)[C@H](C)NC)C(=O)N1CCC[C@H]1CN(CCc1ccccc1)C(=O)c1ccc(OC)cc1 [Compound 9],< 100 nM
3,CN[C@@H](C)C(=O)N[C@H](C(=O)N1CCC[C@H]1CN(CCc1ccccc1)C(=O)CNCc1ccccc1)[C@@H](C)OCC#CC#CCO[C@H](C)[C@H](NC(=O)[C@H](C)NC)C(=O)N1CCC[C@H]1CN(CCc1ccccc1)C(=O)CNCc1ccccc1 [Compound 10],< 100 nM
4,CN[C@@H](C)C(=O)NC(CCCNC(=O)c1ccc(C(=O)NCCC[C@H](NC(=O)[C@H](C)NC)C(=O)N2CCC[C@H]2C(=O)N[C@@H]2CCCc3ccccc32)cc1)C(=O)N1CCC[C@H]1C(=O)N[C@@H]1CCCc2ccccc21 (some centres unmarked) [Compound 15],< 100 nM
5,CN[C@@H](C)C(=O)N[C@@H](CCCNC(=O)NCCC[C@H](NC(=O)[C@H](C)NC)C(=O)N1CCC[C@H]1C(=O)N[C@@H]1CCCc2ccccc21)C(=O)N1CCC[C@H]1C(=O)N[C@@H]1CCCc2ccccc21 [Compound 16],< 100 nM
6,CN[C@@H](C)C(=O)N[C@@H](CCC(=O)NCc1ccc(CNC(=O)CC[C@H](NC(=O)[C@H](C)NC)C(=O)N2CCC[C@H]2CN(CCc2ccccc2)C(=O)C(F)(F)F)cc1)C(=O)N1CCC[C@H]1CN(CCc1ccccc1)C(=O)C(F)(F)F [Compound 17],< 1000 nM

# The next lines start with the values.
row,EC50,SMILES
1,< 100 nM,CN[C@@H](C)C(=O)N[C@@H](COCC#CC#CCOC[C@H](NC(=O)[C@H](C)NC)C(=O)N1CCC[C@H]1CN(CCc1ccccc1)C(=O)C(F)(F)F)C(=O)N1CCC[C@H]1CN(CCc1ccccc1)C(=O)C(F)(F)F [Compound 24]
2,< 100 nM,CN[C@@H](C)C(=O)N[C@H](C(=O)N1CCC[C@H]1C(=O)N[C@@H]1CCCc2ccccc21)[C@@H](C)OCCCCCCO[C@H](C)[C@H](NC(=O)[C@H](C)NC)C(=O)N1CCC[C@H]1C(=O)N[C@@H]1CCCc2ccccc21 [Compound 25]
3,< 100 nM,CN[C@@H](C)C(=O)N[C@H](C(=O)N1CCC[C@H]1CN(CCc1ccccc1)C(=O)C(C)C)[C@@H](C)OCC#CC#CCO[C@H](C)[C@H](NC(=O)[C@H](C)NC)C(=O)N1CCC[C@H]1CN(CCc1ccccc1)C(=O)C(C)C [Compound 26]
